# According to BindingDB's records for doi:10.7270/Q2DV1H7P (Burnham Center For Chemical Genomics, 2009):
# Target: Runt-related transcription factor 1 (Homo sapiens, UniProt Q01196)
# Test: inhibitors of RUNX1 Runt–CBFb-SMMHC binding, primary screen, biochemical, FRET, Cerulean-Runt, Venus-CBFb-SMMHC, uHTS (AID 1434)
# Details: pH 7.4; 23 °C
# Runt-related transcription factor 1, sequence (Q01196 whole entry): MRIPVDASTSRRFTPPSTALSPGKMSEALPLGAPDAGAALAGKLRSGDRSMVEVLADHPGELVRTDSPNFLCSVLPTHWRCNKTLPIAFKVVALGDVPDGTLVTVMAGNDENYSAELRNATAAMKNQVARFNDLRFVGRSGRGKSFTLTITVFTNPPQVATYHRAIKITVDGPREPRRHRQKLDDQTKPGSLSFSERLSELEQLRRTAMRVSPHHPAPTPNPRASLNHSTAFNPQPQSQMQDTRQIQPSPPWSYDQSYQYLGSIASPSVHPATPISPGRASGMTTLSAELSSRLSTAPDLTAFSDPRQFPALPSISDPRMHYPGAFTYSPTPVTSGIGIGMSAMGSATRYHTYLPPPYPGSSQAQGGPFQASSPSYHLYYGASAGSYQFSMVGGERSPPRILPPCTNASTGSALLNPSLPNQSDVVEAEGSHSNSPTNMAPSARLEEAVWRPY
row,IC50 [µM],Compound
1,100,Cc1cc2c(c(=O)n1CCc1ccccc1)C(c1ccco1)C(C#N)C(=N)O2 (stereo not drawn) [SMR000149533]
2,100,CN1c2ccsc2C(=O)C(C(=S)Nc2ccc(F)c(Cl)c2)S1(=O)=O (stereo not drawn)
3,10.1,Cc1ccc(C)c(-c2csc(N=NC(C)c3cc4c(ccc5ccccc54)oc3=O)n2)c1 (stereo not drawn) [MLS000559785]
